Data reported in patent publication US20250066507A1, “METHODS OF TREATING CANCER WITH A COMBINATION OF AN ANTI-PD-1 ANTIBODY AND AN ANTI-TISSUE FACTOR ANTIBODY-DRUG CONJUGATE” (Genmab A/S, priority 2018, published 2025).
Square brackets hold non-standard residues; d marks the D form. Peptide text beside a SMILES is read from it. * marks the point of attachment. Dolaproine = CO[C@@H]([C@@H]1CCCN1)[C@@H](C)C(=O)O; Dil = CC[C@H](C)[C@H](NC)[C@@H](CC(=O)O)OC; X1 = C[C@@H](N*)[C@@H](O)c1ccccc1; NMeV = CN[C@H](C(=O)O)C(C)C

What was measured:
[1] = test system: T cells; assay: T cell activation in CSFE labeled PBMCs fed drug-killed MDA-MB-231 cells, with or without nivolumab; format: cell-based, human; conditions: for T cell proliferation (CSFE dilution) / IFNγ production / IL12p70 production: MDA-MB-231 cells exposed to the agent; for T cell proliferation (CSFE dilution): fed to CSFE labeled human PBMCs for 48 hours; for IFNγ production / IL12p70 production: fed to human PBMCs for 48 hours
Text: Induction of the innate immune response following exposure to cancer cells undergoing ICD sets up secondary T cell activation, which can be enhanced by concomitant anti-PD1 treatment.

[2] = test system: advanced cervical cancer; conditions: 240 mg Q2W, 19 patients with previously treated; cited from earlier work
[3] = test system: HeLa cells; assay: Western blot of ER stress signalling in MMAE-treated HeLa cells; format: cell-based; conditions: 100 nM MMAE, 16 hours
Description: HeLa cells, a cervical cancer cell line, were cultured in Minimum Essential Medium (MEM) with 10% FBS, 10 mM HEPES, 1 mM sodium pyruvate, 2 mM L-glutamine, penicillin (100 U/ml), and streptomycin (100 μg/ml). HeLa cells were treated with 100 nM MMAE for 16 hours and harvested in radioimmunoprecipitation assay buffer (RIPA) buffer for western blot analysis. […] Severe ER stress is a prerequisite to the exposure of pro-phagocytic signals on the surface of tumor cells, and can be indicated by activation of JNK signaling by phosphorylated IRE1.

[4] = test system: HeLa cells; assay: Live imaging of RFP-tubulin and ER-ID Green in MMAE-treated HeLa cells; format: cell-based; conditions: 100 nM MMAE, imaged over time
Description: Treatment of HeLa cells with MMAE led to disassembly of the microtubule network and subsequent ER mislocalization. HeLa cells were transduced with a baculovirus encoding RFP-labeled Tubulin (CellLight Tubulin-RFP, ThermoFisher Scientific) and an ER-binding dye (ER-ID Green, Enzo Life Sciences). Cells were treated with 100 nM MMAE and imaged over time in the present of MMAE. Within 2 hours, fragmentation and disassembly of the microtubule network became evident, concurrent with the breakdown of the perinuclear organized ER lattice (FIGS. 2A and B). The condensed and mislocalized ER skeleton indicated severe ER stress within 8 hours.

[5] = test system: HeLa cells; assay: ATP and HMGB1 secretion from MMAE-treated HeLa cells; format: cell-based; conditions: 100 nM MMAE, over 24 hours, versus untreated cells
Text: Induction of ICD is also characterized by the secretion of ATP and HMGB1. Extracellular ATP serves as a strong chemotactic signal, promoting immune cell migration to the tumor site. Upon arrival, extracellular HMGB1 signals through various pro-inflammatory receptors (TLR2, TLR4, RAGE) to activate antigen-presenting cells, thereby promoting immune activity within the tumor.

[6] = test system: Tissue Factor positive cell lines; assay: Release of ICD molecules ATP and HMGB1 from Tissue Factor positive cells; format: cell-based; conditions: for ATP secretion: FIG. 4A; for HMGB1 release: FIG. 4C
Text: Auristatin ADC payloads disrupt the microtubule networks resulting in altered ER localization and function, which ultimately results in ER stress. Cells exposed to Tissue Factor directed antibody linked to the monomethyl auristatin E payload (MMAE), i.e., tisotumab vedotin (an antibody drug conjugate or ADC), undergo cell death and as they do release the ICD related molecules ATP (FIG. 4A) and HMGB1 (FIG. 4C). The release of these molecules is specific to tisotumab vedotin ADC and MMAE treatment and occurs across multiple Tissue Factor positive cell lines (FIG. 4B).

[7] = test system: HPAFII (pancreatic carcinoma); assay: Western blot of ER stress pathways in HPAFII cells; format: cell-based; conditions: 18 hours (FIG. 5 legend: 16 hours)
Description: (§1) Induction of cell death and release of ICD danger signals occurs concomitant with initiation of an ER stress response. Two Tissue Factor positive cell lines, HPAFII (pancreatic carcinoma) and MDA-MB-231 (breast cell carcinoma) were exposed to tisotumab vedotin ADC, an Isotype-MMAE ADC (H00-MMAE, IgG1 MMAE), or free MMAE for 18 hours and induction of ER stress monitored by western blot analysis. Phosphorylation of inositol-requiring transmembrane kinase/endonuclease 1 (IRE1) was detected after treatment with tisotumab vedotin ADC or MMAE free drug (FIG. 5). […] The ability for auristatins to prime the immune system to recognize tumor antigens opens the door for a myriad of combinatorial therapeutic options.

[8] = test system: MDA-MB-231 (breast cell carcinoma); assay: Western blot of ER stress pathways in MDA-MB-231 cells; format: cell-based; conditions: 18 hours (FIG. 5 legend: 16 hours)
Description: as §1

[9] = test system: CD14+ monocyte/macrophages; assay: Monocyte/macrophage activation in PBMCs fed drug-killed MDA-MB-231 cells; format: cell-based; conditions: MDA-MB-231 cells killed with the agent, fed to human PBMCs; for monocyte/macrophage activation monitored by CD86 expression: flow cytometry
Text: FIGS. 6A and 6B is a series of graphs in which Tissue Factor positive MDA-MB-231 cells killed with various agents were fed to human peripheral blood mononuclear cells (PBMCs) and immune activation assessed by increased expression of activations markers on innate CD14+ monocyte/macrophages and induction of chemokine and cytokine production.
Immunogenic cell death, as mediated by MMAE, is regulated cell death that activates adaptive immune responses against antigens from dead and dying tumor cells, and allows for the generation of robust innate immune cell activation and subsequent cytotoxic T cell responses targeted towards specific tumor cell antigens. […] Furthermore, these monocyte/macrophages conditioned by ICD-killed cells promote activation of T cells, as evidenced by production of signature inflammatory cytokines associated with cytotoxic T cell responses.

[10] = test system: wild-type tumor cells; assay: Syngeneic model: immunization with drug-killed human TF positive tumor cells, then tumor challenge; format: in vivo, Balb/c mice; conditions: for survival after challenge / tumor growth after challenge: Balb/c mice immunized with human TF positive tumor cells killed by the agent, challenged s.c. with 5×10^6 wild-type tumor cells
Description: Mouse tumor cells are transfected with plasmid constructs encoding human tissue factor (TF) and sgRNA-guided Cas9 nuclease (sgRNA/Cas9) to generate a murine cell line that expresses the human TF. Fluorescence activated cell sorting (FACS) yields a clonal population of murine tumor cells that stably express human TF, these cells are then treated with lpg to 5 μg per ml of tisotumab vedotin or 100 nM of MMAE for 4 days. In order to prepare dying cells for immunization, treated murine tumor cells are overlaid atop Histopaque, and centrifuged at 2000 g for 30 minutes. Dead and dying cells are pelleted underneath the Histopaque layer, and viability assessed by trypan blue exclusion. A sample with approximately <20% live cells as measured by trypan blue exclusion is obtained. Flash-frozen tumor cells are prepared by submerging the cells in liquid nitrogen for 10 seconds, followed by immersion in 37° C. water until completely thawed. The liquid nitrogen freeze-thaw process is repeated 5 times. Dead and dying human TF positive tumor cells are resuspended in phosphate buffered saline (PBS) and 2×10^6 cells are injected into the peritoneum of immune-competent Balb/c mice. Seven days later, mice receive a second immunization with dead and dying cells prepared in the same manner.
Fourteen days after initial immunization with the dead and dying human TF positive tumor cells, mice are subcutaneously implanted with 5×10^6 wild-type tumor cells and monitored for tumor growth. […] As these effects occur in the absence of any administered therapeutic agent, the administration of cells killed by tisotumab vedotin or MMAE is sufficient to generate long-lasting protective immune memory against subsequent tumor cell challenge. Protective immune memory is amplified by treating these mice with tisotumab vedotin in combination with an antibody that binds to murine PD-1. This combination treatment increases the number of mice that are cured by subsequent tumor challenge.

[11] = concomitant nivolumab treatment, 48 hours

nivolumab: anti-PD-1 antibody, a checkpoint inhibitor
effect of nivolumab on T cell proliferation driven by tisotumab vedotin or MMAE killed cells ([1]; 2 mg/ml of nivolumab, 48 hours): enhanced
effect of concomitant nivolumab on IFNγ production after tisotumab vedotin and MMAE killed cells [1, 11]: increased
effect of concomitant nivolumab on IL12p70 production after tisotumab vedotin and MMAE killed cells [1, 11]: increased
objective response rate [2]: 26%

tisotumab
T cell proliferation (CSFE dilution) [1]: did not elicit these responses
IFNγ production [1]: did not elicit these responses
IL12p70 production [1]: did not elicit these responses

CC[C@H](C)[C@@H]([C@@H](CC(=O)N1CCC[C@H]1[C@H](OC)[C@@H](C)C(=O)N[C@H](C)[C@@H](O)c1ccccc1)OC)N(C)C(=O)[C@@H](NC(=O)[C@@H](NC)C(C)C)C(C)C [MMAE, monomethyl auristatin E] (H-[NMeV]V[Dil][Dolaproine]-X1)
phosphorylation of IRE1 [3]: led to phosphorylation
phosphorylation of JNK [3]: phosphorylation of IRE1 and JNK
time until condensed and mislocalized ER skeleton indicated severe ER stress [4]: ≤ 8 h
time until fragmentation and disassembly of the microtubule network and breakdown of the perinuclear ER lattice became evident [4]: ≤ 2 h
secretion of ATP [5]: increased secretion
secretion of HMGB1 [5]: increased secretion
ATP secretion [6]: robust
HMGB1 release [6]: robust
ATF4 cleavage (PERK pathway) [7]: upregulation of ATF4 cleavage
activation of JNK (phosphorylation) [7]: increased phosphorylation
phosphorylation of IRE1 [7]: detected
ATF4 cleavage (PERK pathway) [8]: upregulation of ATF4 cleavage
activation of JNK (phosphorylation) [8]: increased phosphorylation
phosphorylation of IRE1 [8]: detected
release of innate chemokines including MIP10 [9]: induced release
monocyte/macrophage activation monitored by CD86 expression [9]: drove monocyte/macrophage activations
T cell proliferation (CSFE dilution) [1]: drove T cell proliferation
IFNγ production [1]: increased
IL12p70 production [1]: increased
survival after challenge [10]: increased survival
tumor growth after challenge [10]: delayed tumor growth

tisotumab vedotin
ATP secretion [6]: robust
activity (release of ICD molecules) on multiple Tissue Factor positive cell lines ([6]; FIG. 4B): active
HMGB1 release [6]: robust
ATF4 cleavage (PERK pathway) [7]: upregulation of ATF4 cleavage
activation of JNK (phosphorylation) [7]: increased phosphorylation
phosphorylation of IRE1 [7]: detected
ATF4 cleavage (PERK pathway) [8]: upregulation of ATF4 cleavage
activation of JNK (phosphorylation) [8]: increased phosphorylation
phosphorylation of IRE1 [8]: detected
release of innate chemokines including MIP10 [9]: induced release
monocyte/macrophage activation monitored by CD86 expression [9]: drove monocyte/macrophage activations
T cell proliferation (CSFE dilution) [1]: drove T cell proliferation
IFNγ production [1]: increased
IL12p70 production [1]: increased
survival after challenge [10]: increased survival
tumor growth after challenge [10]: delayed tumor growth
number of mice cured by subsequent tumor challenge ([10]; immunized mice treated with tisotumab vedotin in combination with an antibody that binds to murine PD-1): increases
